According to US6417177B1, “Chloroquine derivatives for the treatment of Parkinson's disease” (Alpha Research Group, LLC, priority 1999, dated 2002):

Key:
diamine oxidase = molecular target: T1, diamine oxidase (Homo sapiens, UniProt P19801); experiment: in vitro comparison of chloroquine phosphate enantiomers for inhibition of diamine oxidase; format: biochemical; conditions: compared between enantiomers of chloroquine phosphate
T1 sequence (P19801 20-751): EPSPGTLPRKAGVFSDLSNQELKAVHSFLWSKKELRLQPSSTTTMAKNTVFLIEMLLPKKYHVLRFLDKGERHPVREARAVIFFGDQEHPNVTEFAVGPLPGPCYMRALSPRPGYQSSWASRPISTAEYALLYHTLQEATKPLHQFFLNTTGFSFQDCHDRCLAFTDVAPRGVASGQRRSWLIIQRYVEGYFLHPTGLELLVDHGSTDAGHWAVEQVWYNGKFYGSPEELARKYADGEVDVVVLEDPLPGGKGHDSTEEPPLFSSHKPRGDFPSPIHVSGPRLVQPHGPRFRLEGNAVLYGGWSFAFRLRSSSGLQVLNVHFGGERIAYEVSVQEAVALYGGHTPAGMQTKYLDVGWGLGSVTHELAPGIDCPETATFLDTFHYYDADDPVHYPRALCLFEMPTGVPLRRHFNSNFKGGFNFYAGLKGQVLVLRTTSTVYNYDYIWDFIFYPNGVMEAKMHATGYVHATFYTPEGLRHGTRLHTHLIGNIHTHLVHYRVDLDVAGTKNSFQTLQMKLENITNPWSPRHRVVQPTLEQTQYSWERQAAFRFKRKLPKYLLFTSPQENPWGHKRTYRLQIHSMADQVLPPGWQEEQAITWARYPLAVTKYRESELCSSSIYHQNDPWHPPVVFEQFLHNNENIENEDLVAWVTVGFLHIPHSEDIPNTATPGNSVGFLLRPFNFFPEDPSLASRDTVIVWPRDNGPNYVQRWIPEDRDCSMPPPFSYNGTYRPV
Procedure: (§1) Enantiomers of chloroquine phosphate were isolated according to the procedure of Stalcup, A. M. et al. (1996), Analytical Chemistry 68:2248-50. Comparisons of these enantiomers with respect to ability to inhibit diamine oxidase and bind to neuromelanin are performed in vitro.

[1] = in vitro comparison of chloroquine phosphate enantiomers for binding to neuromelanin; conditions: compared between enantiomers of chloroquine phosphate
Procedure: as §1

Parkinson's Disease = conditions: cited from earlier work

Compound: CCN(CC)CCCC(C)Nc1ccnc2cc(Cl)ccc12 (single isomer, unassigned) [active enantiomer]
- ability to inhibit diamine oxidase (diamine oxidase): significantly enhanced ability
- ability to bind neuromelanin [1]: significantly enhanced ability

Compound: C#CCN(C)[C@H](C)Cc1ccccc1 [Deprenyl]
- delay of the need to commence L-DOPA treatment (Parkinson's Disease; American researchers): up to nine months
- increase in patient mortality (Parkinson's Disease; co-administered with L-DOPA, compared to the group treated with L-DOPA only): 60%
- neural protection (Parkinson's Disease; two-year patient follow-up examinations): no neural protection was found
